# Assay results reported in the supplement of paper PMC10307832.
# Assays:
# Test in all cases: relative viability (nuclei count vs DMSO), 5 days (fraction); higher = more cells survive
# [1] = compound: CC1=NN=C(O1)C2=NN=C(C=C2)N3CCC(CC3)OC4=C(C=CC(=C4)F)Cl + CC1(C)CCC(c2ccc(Cl)cc2)=C(CN2CCN(c3ccc(C(=O)NS(=O)(=O)c4ccc(N[C@H](CCN5CCOCC5)CSc5ccccc5)c(S(=O)(=O)C(F)(F)F)c4)cc3)CC2)C1 [Navitoclax] (partner 0.5 µM)
# How it was run: (§1)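 Five library-drug doses in √10 steps were combined with a fixed anchor-drug dose, or a single drug was given alone, by pin tool to lung cancer cell lines in 1536-well plates the day after seeding. Nuclei were stained and counted after 5 days. Relative viability is the nuclei count in treated wells over that in vehicle wells, taken as the median of duplicate plates.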
# [2] = compound: CC1=NN=C(O1)C2=NN=C(C=C2)N3CCC(CC3)OC4=C(C=CC(=C4)F)Cl + C[C@]1(O)C[C@@H](c2nc(-c3ccc4ccc(-c5ccccc5)nc4c3)c3c(N)nccn32)C1 [Linsitinib] (partner 1 µM)
# How it was run: as §1
# [3] = compound: CC(C)C[C@@H](C(=O)N[C@H](C(=O)OC1CCCC1)c1ccccc1)[C@H](O)C(=O)NO [Tosedostat] + Cc1cc(Nc2cc(N3CCN(C)CC3)nc(Sc3ccc(NC(=O)C4CC4)cc3)n2)n[nH]1 [Tozasertib] (partner 0.1 µM)
# How it was run: as §1
# [4] = compound: CC1=NN=C(O1)C2=NN=C(C=C2)N3CCC(CC3)OC4=C(C=CC(=C4)F)Cl + CC(=O)c1c(C)c2cnc(Nc3ccc(N4CCNCC4)cn3)nc2n(C2CCCC2)c1=O [Palbociclib] (partner 0.5 µM)
# How it was run: as §1
Cell Line,relative viability ([1]; first compound 0.253 µM),relative viability ([1]; first compound 0.8 µM),relative viability ([1]; first compound 2.53 µM),relative viability ([1]; first compound 8 µM),relative viability ([2]; first compound 0.253 µM),relative viability ([2]; first compound 0.8 µM),relative viability ([2]; first compound 2.53 µM),relative viability ([2]; first compound 8 µM),relative viability ([3]; first compound 0.02 µM),relative viability ([3]; first compound 0.06325 µM),relative viability ([3]; first compound 0.2 µM),relative viability ([3]; first compound 0.6325 µM),relative viability ([3]; first compound 2 µM),relative viability ([4]; first compound 0.253 µM),relative viability ([4]; first compound 0.8 µM),relative viability ([4]; first compound 2.53 µM),relative viability ([4]; first compound 8 µM)
IA-LM,0.131,0.137,0.127,0.12,0.0892,0.0763,0.1,0.0794,–,–,–,–,–,–,–,–,–
NCI-H647,0.744,0.704,0.821,0.679,0.759,0.805,0.616,0.582,0.37,0.262,0.339,0.175,0.367,0.168,0.201,0.155,0.0745
NCI-H520,0.926,0.566,1.05,1.09,0.929,0.793,0.93,0.755,0.448,0.478,0.438,0.399,0.542,0.247,0.258,0.263,0.251
NCI-H1355,–,–,0.947,0.763,–,–,0.806,0.66,0.63,0.55,0.584,0.533,0.442,0.25,0.359,0.353,0.353
COR-L23,0.815,0.729,0.789,0.629,0.669,0.726,0.678,0.579,0.214,0.165,0.172,0.161,0.128,0.27,0.24,0.241,0.247
NCI-H2347,0.643,0.533,0.62,0.532,0.636,0.69,0.766,0.658,0.519,0.509,0.504,0.435,0.41,0.459,0.43,0.411,0.386
LC-2-ad,0.318,0.242,0.307,0.218,0.427,0.376,0.381,0.328,0.472,0.454,0.403,0.297,0.281,0.215,0.216,0.239,0.202
NCI-H2023,0.486,0.557,0.565,0.442,0.478,0.433,0.557,0.393,0.378,0.319,0.35,0.291,0.169,0.28,0.277,0.233,0.199
NCI-H1793,0.45,0.397,0.371,0.282,0.725,0.735,0.952,0.822,0.289,0.386,0.295,0.31,0.289,0.304,0.314,0.342,0.301
NCI-H2228,0.63,0.592,0.756,0.526,0.673,0.808,0.481,0.547,0.375,0.286,0.216,0.101,0.0875,0.675,0.394,0.681,0.538
NCI-H1650,–,0.895,0.816,0.868,–,–,–,–,0.333,0.503,0.339,0.238,0.242,0.253,0.334,0.3,0.292
NCI-H1299,0.895,0.932,0.894,0.835,0.896,0.802,0.807,0.856,–,–,–,–,–,–,–,–,–
ChaGo-K-1,0.678,0.624,0.632,0.622,–,–,–,–,0.241,0.227,0.269,0.199,0.176,0.625,0.502,0.57,0.553
NCI-H522,–,–,–,–,–,–,–,–,0.561,0.566,0.533,0.509,0.45,1.1,1.01,0.65,1.05
NCI-H1703,0.9,0.987,0.783,0.71,0.714,0.686,0.803,0.737,–,–,–,–,–,–,–,–,–
NCI-H1648,–,–,–,–,–,–,–,–,0.518,0.493,0.402,0.576,0.433,0.258,0.278,0.263,0.244
NCI-H2342,–,–,–,–,–,–,–,–,0.489,0.537,0.522,0.496,0.491,0.478,0.491,0.458,0.417
SW 900,–,–,–,–,–,–,–,–,0.573,0.482,0.421,0.427,0.314,–,0.574,0.504,0.463
A549,0.778,0.652,0.599,0.587,0.543,0.565,0.427,0.351,–,–,–,–,–,–,–,–,–
NCI-H2170,0.464,0.421,0.556,0.417,–,–,–,–,0.737,0.728,0.734,0.707,0.689,0.196,0.22,0.22,0.175
NCI-H661,–,–,–,–,0.566,0.531,0.62,0.469,0.354,0.353,0.374,0.395,0.342,0.354,0.38,0.355,0.302
ABC-1,–,–,–,–,0.627,0.465,0.575,0.451,0.17,0.194,0.137,0.118,0.17,0.411,0.271,0.287,0.28
LCLC-103H,–,–,–,–,0.807,0.867,0.761,0.711,0.508,0.512,0.545,0.407,0.276,0.343,0.32,0.321,0.343
NCI-H650,–,–,–,–,0.981,0.766,0.773,0.786,0.839,0.78,0.684,0.602,0.471,0.323,0.318,0.32,0.314
